Data taken from PMC9227536, “Prediction of Pharmacokinetics of IDP-73152 in Humans Using Physiologically-Based Pharmacokinetics” (Pharmaceutics, 2022).
Like-named read-outs stand apart in the source and are kept apart here.

Experiments:
Stability in plasma, dog = format: in vitro ADME; settings: dogs plasma
Procedure: (§1) The unbound fractions of IDP-73152 in various matrices were measured according to the manufacturer's instructions for the rapid equilibrium dialysis (RED) device (ThermoFisher Scientific, Waltham, MA, USA). Briefly, IDP-73152 was added to the plasma or the microsomal/hepatocyte incubation buffer from various species (i.e., mouse, rat, dog, and human for microsomal incubation; rat for hepatocyte incubation) to obtain final concentrations of the compound at 0.3, 1, and 3 μM. After the membrane insert was placed in the RED plate, the solution containing IDP-73152 was added (400 μL) to the sample chamber, and the dialysis buffer (600 μL) was added to the buffer chamber. The RED plate was sealed with parafilm and then incubated at 37 °C in the orbital shaker (Lab Companion, Daejeon, Korea) at 100 rpm for 5 h. […] The IDP-73152 concentration in the buffer/sample chambers (i.e., CBuffer Chamber and CSample Chamber) was determined by an assay. Thus, the fraction unbound was defined as:(2) % Fraction unbound=(CBuffer Chamber/CSample Chamber)×100% When necessary, the stability of IDP-73152 in the matrix was also determined at 5 h. […] Accordingly, the kinetics of IDP-73152 instability were determined in the rat blood at a final concentration of 0.3 μM. […]

[1] = Stability in plasma, human; format: in vitro ADME; settings: humans plasma
Procedure: as §1

[2] = Metabolic stability in rat hepatocytes; format: in vitro ADME
Procedure: For the hepatocyte incubation study, rat hepatocytes were freshly prepared using the two-step collagenase perfusion method with slight modifications. After the isolation, cell viability during the preparation process was first determined by a trypan blue exclusion assay prior to the stability study. The preparation was considered adequate for subsequent studies if the viability was greater than 80%. When appropriate, the hepatocytes were resuspended in Williams' media E containing 10% fetal bovine serum, 1% penicillin-streptomycin, and 0.01% insulin-transferrin-selenium (i.e., 10 mg/mL insulin, 5.5 mg/mL transferrin, and 5 mg/mL selenium) at pH 7.4. […] Assuming first-order disappearance kinetics, the slope k of the logarithmically transformed IDP-73152 concentration in the sample versus time plot was determined by the linear regression analysis of the data. The total intrinsic clearance (CLint,mic, μL/min/mg protein for microsomal incubation study and CLint,hep, μL/min/million cells for hepatocytes incubation study) was then calculated using the following equations:(4) CLint, mic=k×Volume of incubation medium (μL)/Protein in incubation medium (mg) (5) CLint,hep=k×Volume of incubation (μL)/Number of cells in incubation (×10^6) The unbound intrinsic clearance, with respect to the whole liver ([…]), was then estimated for the two cases. […]

[3] = parameters: method as in PMID 31440032; settings: cited from earlier work; for Observed AUCinf / Observed Cmax: humans, fasting

CC(C)(C)[C@H](NC(=O)[C@H](CC1CCCC1)CN(O)C=O)C(=O)N1CCC(NCc2cc(F)c(F)cc2F)CC1 [IDP-73152]
percentage remaining in plasma at 5 h (Stability in plasma, dog; 5 h, 37 °C): 101 ± 6%
stability in plasma (Stability in plasma, dog; preliminary study): stable
percentage remaining in plasma at 5 h ([1]; 5 h, 37 °C): 98.2 ± 3.4%
stability in plasma ([1]; preliminary study): stable
hepatocyte CLint at 1 μM ([2]; freshly isolated hepatocytes in suspension, pH 7.4, rat hepatocytes 0.5 × 10^6 cells/mL, 1 μM, read-out: CL,int,hep): 27.7 ± 3.2 µL/min/1e6 cells
CLu,int,H ([2]; rats, scaled from rat hepatocytes): 6.82 ± 0.79 L/h
adverse effects ([3]; human subjects, single oral dose of 40–1280 mg): without clinically significant adverse effects
Observed AUCinf ([3]; single oral 640 mg): 43400 ± 4470 ng·h/mL
Observed Cmax ([3]; single oral 640 mg): 8920 ± 1170 ng/mL
Observed AUCinf ([3]; single oral 1280 mg): 77400 ± 15400 ng·h/mL
Observed Cmax ([3]; single oral 1280 mg): 13200 ± 2500 ng/mL
